According to patent US6905861B2, “D-aminoacylases, method for producing the same, and method for producing D-amino acids using the same” (Daicel Chemical Industries, Ltd., priority 1998, dated 2005):
One block for each compound: values may come before it.

Assays:
D-aminoacylase [1] = experiment: Effects of various metal salts and reagents on residual enzyme activity; assay type: biochemical, Hypomyces mycophilus IFO 6785; conditions: for Relative activity (%): pH 9.5; for effect on the enzyme (in words): summary of Tables 6 and 7
D-aminoacylase [2] = experiment: Substrate specificity of purified D-aminoacylase (TNBS method); assay type: biochemical, Hypomyces mycophilus IFO 6785; conditions: for percentage of the specific activity compared with that for N-acetyl-D-methionine taken as 100%, L-enantiomer / percentage of the specific activity compared with that for N-acetyl-D-methionine taken as 100%, D-enantiomer: 20 mM substrate, 50 mM Tris-HCl pH 7.5, 30° C., 20 min; for activity of the enzyme for the substrate (in words): summary of Table 5
Description: The enzyme activity was assayed by determining the amount of amino acid produced using the TNBS method and the HPLC method. In the TMBS method, 100 mM Na2B4O7 (0.5 ml) was added to a sample solution containing amino acid (0.5 ml), 20 μl of 110 mM TNBS (trinitrobenzenesulfonic acid) was then added, and the resulting mixture was quickly stirred. After 5 min, 100 mM NaH2PO4 containing 1.5 mM Na2SO3 (2 ml) was added to the reaction mixture to terminate the color reaction, and the absorbance at 420 nm was measured. HPLC was performed by subjecting a sample solution containing amino acid to high-performance liquid chromatography using an ODS column (column, Wakosil II 5C18 (4.6 dia.×250 mm) (Wako Pure Chemical); eluent, CH3CN/50 mM KH2PO4. H3PO4 (pH 2.5)=2:8; detection, A280 nm; and flow rate, 1.0 ml/min). The retention times were 3.5 min for D-tryptophan and 9.8 min for N-acetyl-D-tryptophan. Using D-tryptophan as the assay standard, one unit (or U) of the enzyme was defined as the amount of the enzyme required to produce 1 μmol of D-tryptophan at 30° C. for 1 min.
Substrate specificity of the enzyme was expressed as the percentage of the specific activity compared with that for N-acetyl-D-methionine taken as 100%. N-chloroacetyl-D-phenylalanine, N-acetyl-D-valine, N-acetyl-D-phenylalanine, N-acetyl-D-tryptophan, N-acetyl-D-leucine, N-acetyl-L-valine, N-acetyl-L-phenylalanine, N-acetyl-L-tryptophan, and N-acetyl-L-leucine substrates were used for the comparison. The enzyme reaction was performed in 50 mM Tris-HCl (pH 7.5) containing 1 µl of the enzyme solution and 20 mM of each substrate (total volume 1.0 ml) at 30° C. for 20 min, and terminated by adding 0.5 ml of a TCA reaction terminating solution according to Tsai et al. (consisting of 110 mM trichloroacetic acid, 220 mM sodium acetate, and 330 mM acetic acid). The enzyme activity was assayed by the TNBS method as described in Example 4(2).

[3] = tested on: Hypomyces subiculosus IFO 6892 strain; experiment: D-amino acid production from N-acetyl-D-amino acid by washed fungal cells; assay type: cell-based; conditions: Hypomyces subiculosus IFO 6892 cells; 0.1% substrate, Tris-HCl pH 7.5, 30° C., 24 hours
Description: (§1) A platinum loopful of Hypomyces aurantius IFO 6847 strain, Hypomyces broomeanus IFO 9164 strain, Hypomyces rosellus IFO 6911 strain, Hypomyces chrysospermus IFO 6817 strain, Hypomyces sepulcralis IFO 9102 strain, Hypomyces subiculosus IFO 6892 strain, Hypomyces mycophilus ATCC 76474 or IFO 6785 strain, or Fusarium solani IFO 9974 or IFO 9975 strain was inoculated into 25 ml of YM medium (containing 0.3% yeast extract, 0.3% malt extract, 0.5% peptone, and 2.0% glucose, pH 6.0) in a 500-ml shouldered flask. The fungi were shake-cultured at 24° C. for 3 days. After culturing, a 5-ml aliquot of the culture medium was centrifuged in a refrigerated centrifuge to collect the fungal cells. The cells were washed with physiological saline solution (5 ml) and collected by centrifugation again. A reaction solution (containing 0.1% N-acetyl-D-amino acid shown in Table 1 below in Tris-HCl buffer, pH 7.5) was then added to the cells thus collected. The mixture was incubated in a 5-ml test tube with shaking at 30° C. for 24 hours.
(§2) D-Amino acid thus produced was determined by high-performance liquid chromatography (column, CROWNPAK CR (Daicel Chemical); column temperature, 26° C.; cooled in ice for only valine; mobile phase, HClO4 aqueous solution, pH 2.0; flow rate, 1 ml/min; and detection, 200 nm).

[4] = tested on: Hypomyces rosellus IFO 6911 strain; experiment: as above; assay type: cell-based; conditions: Hypomyces rosellus IFO 6911 cells; 0.1% substrate, Tris-HCl pH 7.5, 30° C., 24 hours
Description: as §1, §2

[5] = tested on: Hypomyces sepulcralis IFO 9102 strain; experiment: as above; assay type: cell-based; conditions: Hypomyces sepulcralis IFO 9102 cells; 0.1% substrate, Tris-HCl pH 7.5, 30° C., 24 hours
Description: as §1, §2

[6] = tested on: Hypomyces mycophilus IFO 6785 strain; experiment: as above; assay type: cell-based; conditions: Hypomyces mycophilus IFO 6785 cells; 0.1% substrate, Tris-HCl pH 7.5, 30° C., 24 hours
Description: as §1, §2

[7] = tested on: Fusarium solani IFO 9975 strain; experiment: as above; assay type: cell-based; conditions: Fusarium solani IFO 9975 cells; 0.1% substrate, Tris-HCl pH 7.5, 30° C., 24 hours
Description: as §1, §2

[8] = tested on: Hypomyces broomeanus IFO 9164 strain; experiment: as above; assay type: cell-based; conditions: Hypomyces broomeanus IFO 9164 cells; 0.1% substrate, Tris-HCl pH 7.5, 30° C., 24 hours
Description: as §1, §2

Fusarium solani IFO 9974 = experiment: as above; assay type: cell-based; conditions: Fusarium solani IFO 9974 cells; 0.1% substrate, Tris-HCl pH 7.5, 30° C., 24 hours
Description: as §1, §2

[9] = tested on: Hypomyces chrysospermus IFO 6817 strain; experiment: as above; assay type: cell-based; conditions: Hypomyces chrysospermus IFO 6817 cells; 0.1% substrate, Tris-HCl pH 7.5, 30° C., 24 hours
Description: as §1, §2

[10] = tested on: Hypomyces mycophilus ATCC 76474; experiment: as above; assay type: cell-based; conditions: Hypomyces mycophilus ATCC 76474 cells; 0.1% substrate, Tris-HCl pH 7.5, 30° C., 24 hours
Description: as §1, §2

[11] = tested on: Hypomyces aurantius IFO 6847 strain; experiment: as above; assay type: cell-based; conditions: Hypomyces aurantius IFO 6847 cells; 0.1% substrate, Tris-HCl pH 7.5, 30° C., 24 hours
Description: as §1, §2

[12] = tested on: D-aminoacylase (crude enzyme) of Auricularia auriculajudae IFO 5949; experiment: Crude enzyme activity for each N-Ac-D-amino acid substrate; assay type: biochemical; conditions: Auricularia auriculajudae IFO 5949 crude enzyme; 20 mM substrate, 1 mM CoCl2, 50 mM phosphate buffer pH 7.0
Description: (§3) Auricularia auriculajudae IFO 5949, Pythium aphanidermaatum IFO 7030, and Menisporopsis novaezelandiae IFO 9179 were each inoculated into sterilized media (100 ml each) (Czapek Dox Broth for IFO 5949, YM1 medium for IFO 7030, and POTATO DEXTROSE BROTH for IFO 9179) in 500-ml Erlenmeyer flasks. The fungi were cultured on a rotary shaker at 210 rpm at 24° C. for 7 days and collected by centrifugation using a […] centrifuge with a RPR10-2 rotor at 8,000 rpm (12,500×g) for 20 min. […] Disrupted cells thus obtained were centrifuged using a […] centrifuge with a RPR20-2 rotor at 17,500 rpm (38,000×g) for 30 min at 4° C. to obtain the supernatant as the crude enzyme. […] Figures in the table denote the amount (mM) of D-amino acids produced from the corresponding N-acetyl-D-amino acids. The D-aminoacylase activity was detected in all the strains tested, producing D-amino acid from the corresponding N-acetyl-D-amino acid.

[13] = tested on: D-aminoacylase (crude enzyme) of Menisporopsis novaezelandiae IFO 9179; experiment: as above; assay type: biochemical; conditions: Menisporopsis novaezelandiae IFO 9179 crude enzyme; 20 mM substrate, 1 mM CoCl2, 50 mM phosphate buffer pH 7.0
Description: as §3

[14] = metal ion 1 mM, kept at 40° C. for 30 min, residual activity, no addition = 100
[15] = compound 1 mM, kept at 40° C. for 30 min, residual activity, no addition = 100

Compound: NC(=O)CI [Iodoacetamide]
Relative activity (%) (D-aminoacylase [1]): 185%
effect on the enzyme (in words) (D-aminoacylase [1]): activated

Compound: [Cl][Mn][Cl] [MnCl2]
Relative activity (%) (D-aminoacylase [1]; [14]): 100%

percentage of the specific activity compared with that for N-acetyl-D-methionine taken as 100%, L-enantiomer (D-aminoacylase [2]): 0%
activity of the enzyme for the substrate (in words) (D-aminoacylase [2]): inactive
Compound: CSCC[C@H](NC(C)=O)C(=O)O [N-acetyl-L-methionine]

percentage of the specific activity compared with that for N-acetyl-D-methionine taken as 100%, D-enantiomer (D-aminoacylase [2]): 77.5%
activity of the enzyme for the substrate (in words) (D-aminoacylase [2]): very active
amount of D-amino acids produced from the corresponding N-acetyl-D-amino acids [12]: 2.68 mM
Compound: CC(=O)N[C@H](CC(C)C)C(=O)O [N-acetyl-D-leucine]
D-amino acid produced from N-acetyl-D-amino acid [3]: 0.10 mg/mL
D-amino acid produced from N-acetyl-D-amino acid [4]: 0.3 mg/mL
D-amino acid produced from N-acetyl-D-amino acid [5]: 1.60 mg/mL
D-amino acid produced from N-acetyl-D-amino acid [6]: 0.55 mg/mL
D-amino acid produced from N-acetyl-D-amino acid [7]: 0.21 mg/mL
D-amino acid produced from N-acetyl-D-amino acid [8]: 0 mg/mL
D-amino acid produced from N-acetyl-D-amino acid (Fusarium solani IFO 9974): 0.14 mg/mL
D-amino acid produced from N-acetyl-D-amino acid [9]: 1.05 mg/mL
D-amino acid produced from N-acetyl-D-amino acid [10]: 0.11 mg/mL
D-amino acid produced from N-acetyl-D-amino acid [11]: 0 mg/mL

Compound: [Cl-].[Cl-].[Mg+2] [MgCl2]
Relative activity (%) (D-aminoacylase [1]): 98.0%

percentage of the specific activity compared with that for N-acetyl-D-methionine taken as 100%, L-enantiomer (D-aminoacylase [2]): 0%
activity of the enzyme for the substrate (in words) (D-aminoacylase [2]): inactive
Compound: CC(=O)N[C@H](C(=O)O)C(C)C [N-acetyl-L-valine]

amount of D-amino acids produced from the corresponding N-acetyl-D-amino acids [13]: 0.66 mM
amount of D-amino acids produced from the corresponding N-acetyl-D-amino acids [12]: 1.10 mM
Compound: CC(=O)N[C@H](CC(=O)O)C(=O)O [N-Acetyl-D-aspartic acid]

Relative activity (%) (D-aminoacylase [1]; [15]): 11.6%
Compound: O=S(=O)([O-])[O-].[Zn+2] [ZnSO4]

Compound: [Cl-].[Cl-].[Co+2] [CoCl2]
Relative activity (%) (D-aminoacylase [1]): 63.1%

Compound: [Cl][Hg][Cl] [HgCl2]
Relative activity (%) (D-aminoacylase [1]): 13.4%

percentage of the specific activity compared with that for N-acetyl-D-methionine taken as 100%, L-enantiomer (D-aminoacylase [2]): 0%
activity of the enzyme for the substrate (in words) (D-aminoacylase [2]): inactive
Compound: CC(=O)N[C@@H](Cc1c[nH]c2ccccc12)C(=O)O [N-acetyl-L-tryptophan]

Compound: O=S(=O)(F)Cc1ccccc1 [PMSF, phenyl methyl sulfonyl fluoride]
Relative activity (%) (D-aminoacylase [1]): 94.2%

Compound: Penicillin
percentage of the specific activity compared with that for N-acetyl-D-methionine taken as 100%, D-enantiomer (D-aminoacylase [2]): 0%

percentage of the specific activity compared with that for N-acetyl-D-methionine taken as 100%, D-enantiomer (D-aminoacylase [2]): 0%
Compound: CC[C@@H](C)[C@@H](NC(C)=O)C(=O)O [N-acetyl-D-isoleucine]

percentage of the specific activity compared with that for N-acetyl-D-methionine taken as 100%, D-enantiomer (D-aminoacylase [2]): 0%
Compound: CC(=O)N1CCC[C@@H]1C(=O)O [N-acetyl-D-proline]

Compound: [Cl-].[Cl-].[Zn+2] [ZnCl2]
Relative activity (%) (D-aminoacylase [1]): 26.2%

Compound: [Zn+2] [Zn^2+]
effect on the enzyme (in words) (D-aminoacylase [1]): inhibited

Relative activity (%) (D-aminoacylase [1]; [15]): 96.0%
effect on the enzyme (in words) (D-aminoacylase [1]): not being inhibited
Compound: O=C(O)CN(CCN(CC(=O)O)CC(=O)O)CC(=O)O [EDTA]

percentage of the specific activity compared with that for N-acetyl-D-methionine taken as 100%, L-enantiomer (D-aminoacylase [2]): 0%
activity of the enzyme for the substrate (in words) (D-aminoacylase [2]): inactive
Compound: CC(=O)N[C@@H](CC(C)C)C(=O)O [N-acetyl-L-leucine]

percentage of the specific activity compared with that for N-acetyl-D-methionine taken as 100%, D-enantiomer (D-aminoacylase [2]): 0%
Compound: CC(=O)N[C@H](CC(N)=O)C(=O)O [N-acetyl-D-asparagine]

Compound: NO [Hydroxylamine]
Relative activity (%) (D-aminoacylase [1]; [15]): 96.2%

Relative activity (%) (D-aminoacylase [1]; [15]): 90.9%
Compound: O=C(O)CN(CCOCCOCCN(CC(=O)O)CC(=O)O)CC(=O)O [EGTA]

Compound: O=C(CCl)N[C@H](Cc1ccccc1)C(=O)O [N-chloroacetyl-D-phenylalanine]
percentage of the specific activity compared with that for N-acetyl-D-methionine taken as 100%, D-enantiomer (D-aminoacylase [2]): 708%
activity of the enzyme for the substrate (in words) (D-aminoacylase [2]): especially active

Relative activity (%) (D-aminoacylase [1]; [15]): 20.4%
Compound: O=S(=O)([O-])[O-].[Cu+2] [CuSO4]

Compound: [Cl-].[K+] [KCl]
Relative activity (%) (D-aminoacylase [1]; [14]): 102%

Compound: [Ca+2].[Cl-].[Cl-] [CaCl2]
Relative activity (%) (D-aminoacylase [1]; [14]): 104%

Relative activity (%) (D-aminoacylase [1]; [15]): 78.8%
Compound: c1cnc2c(c1)ccc1cccnc12 [o-Phenanthroline]

Compound: [Cu+2] [Cu^2+]
effect on the enzyme (in words) (D-aminoacylase [1]): inhibited

Compound: [Co+2] [Co^2+]
effect on the enzyme (in words) (D-aminoacylase [1]): inhibited

percentage of the specific activity compared with that for N-acetyl-D-methionine taken as 100%, L-enantiomer (D-aminoacylase [2]): 0%
activity of the enzyme for the substrate (in words) (D-aminoacylase [2]): inactive
Compound: CC(=O)N[C@@H](Cc1ccccc1)C(=O)O [N-acetyl-L-phenylalanine]

Compound: [Hg+2] [Hg^2+]
effect on the enzyme (in words) (D-aminoacylase [1]): inhibited

Compound: O=C(O)c1cc[c]([Hg][Cl])cc1 [P-Chloromercuribenzoic acid]
Relative activity (%) (D-aminoacylase [1]; compound 0.5 mM, kept at 40° C. for 30 min, residual activity, no addition = 100): 99.6%

percentage of the specific activity compared with that for N-acetyl-D-methionine taken as 100%, D-enantiomer (D-aminoacylase [2]): 0%
Compound: O=C(N[C@H](Cc1ccccc1)C(=O)O)c1ccccc1 [N-benzoyl-D-phenylalanine]

Compound: [Cl][Ni][Cl] [NiCl2]
Relative activity (%) (D-aminoacylase [1]): 57.7%

Relative activity (%) (D-aminoacylase [1]; [15]): 15.2%
Compound: CCN1C(=O)C=CC1=O [N-ethylmaleimide]
